Experiment [1] concerns SK-Br3 (ATCC: HTB-30). Kind of experiment: Test of cancer cell growth inhibition (SRB), SK-Br3. Particulars: read-out: IC50 SK-Br-3.
The subject of experiment [2] is A431 (ATCC: CRL-1555). Kind of experiment: Test of cancer cell growth inhibition (SRB), A431. The conditions noted are these: read-out: IC50 A431.
Setting [3] is: Erb-B2 overexpressed SK-Br3, 72 hours, SRB.
[4] abbreviates: EGFR overexpressed A431, 72 hours, SRB.

Like-named read-outs stand apart in the source and are kept apart here.

As usually defined, the IC50 is the concentration that inhibits the measured activity by half.

Take `C[S+]([O-])CC(=O)NCCCC(=O)Nc1ccc2ncnc(Nc3ccc(OCc4cccc(F)c4)c(Cl)c3)c2c1` (stereo not shown) [Example 138, N-{4-[3-chloro-4-(3-fluoro-benzyloxy)-phenylamino]-quinazolin-6-yl}-4-(2-methanesulfinyl-acetylamino)-butyramide]: the concentration for half-maximal inhibition (IC50) in experiment [1] (Homo sapiens, SK-BR-3, 72 h) was 54 nM; in experiment [2] (Homo sapiens, A-431, 72 h) it was 102 nM.
The matching figures for `C=CC(=O)N1CCC1C(=O)Nc1cc2c(Nc3ccc(OCc4ccccn4)c(Cl)c3)ncnc2cc1OCC` (stereo not shown) [Example 199, 1-acryloyl-azetidine-2-carboxylic acid {4-[3-chloro-4-(pyridin-2-ylmethoxy)-phenylamino]-7-ethoxy-quinazolin-6-yl}-amide]: 96 nM and 145 nM.
Take “(2S)-2-acryloylamino-N-{4-[3-chloro-4-(3-fluoro-benzyloxy)-phenylamino]-7-methoxy-quinazolin-6-yl}-4-methanesulfinyl-butyramide [Example 223]”: the values for the IC50 in experiment [1] (setting [3]) and in experiment [2] (setting [4]) were 32 nM and 54 nM, respectively.
In the case of `C=CC(=O)N1CCC(C(=O)Nc2ccc3ncnc(Nc4ccc(OCc5ccccn5)c(Cl)c4)c3c2)CC1` [Example 156, 1-acryloyl-piperidine-4-carboxylic acid {4-[3-chloro-4-(pyridin-2-ylmethoxy)-phenylamino]-quinazolin-6-yl}-amide], the IC50 in experiment [1] (Homo sapiens, SK-BR-3, 72 h) was found to be 19 nM; in experiment [2] (setting [4]) it was 513 nM.
In the case of `O=C(C=Cc1ccccc1)NCCC(=O)Nc1ccc2ncnc(Nc3ccc(OCc4cccc(F)c4)c(Cl)c3)c2c1` [Example 26, N-(2-{4-[3-chloro-4-(3-fluoro-benzyloxy)-phenylamino]-quinazolin-6-ylcarbamoyl}-ethyl)-3-phenyl-acrylamide], the IC50 in experiment [1] (Homo sapiens, SK-BR-3, 72 h) came to 872 nM; in experiment [2] (Homo sapiens, A-431, 72 h), 801 nM.
The matching figures for `O=C(CCCNC(=O)C1CC1)Nc1ccc2ncnc(Nc3ccc(OCc4cccc(F)c4)c(Cl)c3)c2c1` [Example 92, cyclopropylcarboxylic acid (3-{4-[3-chloro-4-(3-fluoro-benzyloxy)-phenylamino]-quinazolin-6-ylcarbamoyl}-propyl)-amide]: 80 nM and 293 nM.
Take `C=CC(=O)N1CCC[C@H]1C(=O)Nc1ccc2ncnc(Nc3ccc(OCc4ccncc4)c(Cl)c3)c2c1` [Example 153, (2S)-1-acryloyl-pyrrolidine-2-carboxylic acid {4-[3-chloro-4-(pyridin-4-ylmethoxy)-phenylamino]-quinazolin-6-yl}-amide]: the half-inhibitory concentration (IC50) in experiment [1] (Homo sapiens, SK-BR-3, 72 h) was 29 nM; in experiment [2] (Homo sapiens, A-431, 72 h), 394 nM.
For `O=C(CCCNC(=O)c1ccccc1)Nc1ccc2ncnc(Nc3ccc(OCc4cccc(F)c4)c(Cl)c3)c2c1` [Example 90, N-(3-{4-[3-chloro-4-(3-fluoro-benzyloxy)-phenylamino]-quinazolin-6-ylcarbamoyl}-propyl)-benzamide], the 50% inhibitory concentration (IC50) in experiment [1] (Homo sapiens, SK-BR-3, 72 h) came out at 628 nM; in experiment [2] (Homo sapiens, A-431, 72 h) it was 423 nM.
On the same counts, the results for `O=C(CCCNC(=O)c1ccoc1)Nc1ccc2ncnc(Nc3ccc(OCc4cccc(F)c4)c(Cl)c3)c2c1` [Example 94, furan-3-carboxylic acid (3-{4-[3-chloro-4-(3-fluoro-benzyloxy)-phenylamino]-quinazolin-6-ylcarbamoyl}-propyl)-amide] are 70 nM and 245 nM.
On the same counts, the results for `C=CC(=O)N1CCC[C@H]1C(=O)Nc1cc2c(Nc3ccc(OCc4ccccn4)c(Cl)c3)ncnc2cc1Cl` [Example 176, (2S)-1-acryloyl-pyrrolidine-2-carboxylic acid {7-chloro-4-[3-chloro-4-(pyridin-2-ylmethoxy)-phenylamino]-quinazolin-6-yl}-amide] are 34 nM and 517 nM.
On the same counts, the results for `CS(=O)(=O)CCNCC(=O)NCCCC(=O)Nc1ccc2ncnc(Nc3ccc(OCc4cccc(F)c4)c(Cl)c3)c2c1` [Example 107, N-{4-[3-chloro-4-(3-fluoro-benzyloxy)-phenylamino]-quinazolin-6-yl}-4-[2-(2-methanesulfonyl-ethylamino)-acetylamino]-butyramide] are 51 nM and 641 nM.
On to `C=CC(=O)N1CCC[C@H]1C(=O)Nc1cc2c(Nc3ccc(OCc4ccccn4)c(Cl)c3)ncnc2cc1N(C)C` [Example 184, (2S)-1-acryloyl-pyrrolidine-2-carboxylic acid {4-[3-chloro-4-(pyridin-2-ylmethoxy)-phenylamino]-7-dimethylamino-quinazolin-6-yl}-amide], for which the half-maximal inhibitory concentration (IC50) was 114 nM in experiment [1] (Homo sapiens, SK-BR-3, 72 h) and 1420 nM in experiment [2] (Homo sapiens, A-431, 72 h).
The matching figures for `C=CC(=O)N1CCC(C(=O)Nc2cc3c(Nc4ccc(OCc5ccccn5)c(Cl)c4)ncnc3cc2OC)C1` (stereo not shown) [Example 198, 1-acryloyl-pyrrolidine-3-carboxylic acid {4-[3-chloro-4-(pyridin-2-ylmethoxy)-phenylamino]-7-methoxy-quinazolin-6-yl}-amide]: 24 nM and 47 nM.
With `C=CC(=O)N1CCC[C@H]1C(=O)Nc1cc2c(Nc3ccc(OCc4ccccn4)c(Cl)c3)ncnc2cc1SCC` [Example 171, (2S)-1-acryloyl-pyrrolidine-2-carboxylic acid {4-[3-chloro-4-(pyridin-2-ylmethoxy)-phenylamino]-7-ethylsulfanyl-quinazolin-6-yl}-amide], the half-maximal inhibitory concentration (IC50) amounted to 31 nM in experiment [1] (Homo sapiens, SK-BR-3, 72 h) and 306 nM in experiment [2] (Homo sapiens, A-431, 72 h).
The matching figures for `C=CC(=O)NCCCC(=O)Nc1ccc2ncnc(Nc3ccc(F)c(Cl)c3)c2c1` [Example 98, 4-acryloylamino-N-[4-(3-chloro-4-fluoro-phenylamino)-quinazolin-6-yl]-butyramide]: 184 nM and 79 nM.
As to `C=CC(=O)N1CCC[C@H]1C(=O)Nc1cc2c(Nc3ccc(OCc4ccccn4)c(C)c3)ncnc2cc1OCC` [Example 186, (2S)-1-acryloyl-pyrrolidine-2-carboxylic acid {4-[3-methyl-4-(pyridin-2-ylmethoxy)-phenylamino]-7-ethoxy-quinazolin-6-yl}-amide], the IC50 in experiment [1] (Homo sapiens, SK-BR-3, 72 h) turned out to be 8 nM; in experiment [2] (Homo sapiens, A-431, 72 h), 26 nM.
With `COc1cc2ncnc(Nc3ccc(OCc4ccccn4)c(Cl)c3)c2cc1NC(=O)[C@@H]1CCCN1C(=O)C=CCN(C)C` [Example 175, (2S)-1-(4-dimethylamino-buten-2-oyl)-pyrrolidine-2-carboxylic acid {4-[3-chloro-4-(pyridin-2-ylmethoxy)-phenylamino]-7-methoxy-quinazolin-6-yl}-amide], the values for the IC50 in experiment [1] (setting [3]) and in experiment [2] (setting [4]) were 26 nM and 48 nM, respectively.
Regarding `C=CC(=O)N1C[C@H](N(C)C)C[C@H]1C(=O)Nc1ccc2ncnc(Nc3ccc(OCc4ccccn4)c(Cl)c3)c2c1` [Example 151, (2S,4R)-1-acryloyl-4-dimethylamino-pyrrolidine-2-carboxylic acid {4-[3-chloro-4-(pyridin-2-ylmethoxy)-phenylamino]-quinazolin-6-yl}-amide], the half-maximal inhibitory concentration (IC50) in experiment [1] (Homo sapiens, SK-BR-3, 72 h) was 3 nM; in experiment [2] (Homo sapiens, A-431, 72 h) it was 105 nM.
On to `C=CC(=O)N1C[C@H](O)C[C@H]1C(=O)Nc1ccc2ncnc(Nc3ccc(OCc4ccccn4)c(Cl)c3)c2c1` [Example 149, (2S,4R)-1-acryloyl-4-hydroxyl-pyrrolidine-2-carboxylic acid {4-[3-chloro-4-(pyridin-2-ylmethoxy)-phenylamino]-quinazolin-6-yl}-amide], for which the concentration for half-maximal inhibition (IC50) turned out to be 2 nM in experiment [1] (Homo sapiens, SK-BR-3, 72 h) and 54 nM in experiment [2] (Homo sapiens, A-431, 72 h).
Regarding `CC(CNC(=O)OC(C)(C)C)C(=O)Nc1ccc2ncnc(Nc3ccc(OCc4cccc(F)c4)c(Cl)c3)c2c1` (stereo not shown) [Example 41, (2-{4-[3-chloro-4-(3-fluoro-benzyloxy)-phenylamino]-quinazolin-6-ylcarbamoyl}-propyl)-carbamic acid t-butylester], the IC50 in experiment [1] (Homo sapiens, SK-BR-3, 72 h) turned out to be 172 nM; in experiment [2] (Homo sapiens, A-431, 72 h) it was 936 nM.
The matching figures for `Cc1cc(C(=O)NCCC(=O)Nc2ccc3ncnc(Nc4ccc(OCc5cccc(F)c5)c(Cl)c4)c3c2)on1` [Example 32, 3-methyl-isoxazol-5-carboxylic acid (2-{4-[3-chloro-4-(3-fluoro-benzyloxy)-phenylamino]-quinazolin-6-ylcarbamoyl}-ethyl)-amide]: 163 nM and 312 nM.
Regarding `C=CC(=O)N[C@@H](CC(C)C)C(=O)Nc1ccc2ncnc(Nc3ccc(OCc4ccccn4)c(Cl)c3)c2c1` [Example 225, (2S)-2-acryloylamino-4-methyl-pentanoic acid {4-[3-chloro-4-(pyridin-2-ylmethoxy)-phenylamino]-quinazolin-6-yl}-amide], the IC50 in experiment [1] (Homo sapiens, SK-BR-3, 72 h) is 21 nM; in experiment [2] (Homo sapiens, A-431, 72 h) it was 42 nM.
Regarding `C=CC=CCn1ncc2cc(Nc3ncnc4cc(OC)c(NC(=O)[C@@H]5CCCN5C(=O)C=C)cc34)ccc21` [Example 193, (2S)-1-acryloyl-pyrrolidine-2-carboxylic acid [7-methoxy-4-(1-penta-2,4-dienyl-1H-indazol-5-ylamino)-quinazolin-6-yl]-amide], the concentration for half-maximal inhibition (IC50) in experiment [1] (Homo sapiens, SK-BR-3, 72 h) came out at 22 nM; in experiment [2] (Homo sapiens, A-431, 72 h), 75 nM.
Take `C=CC(=O)N1CCC[C@H]1C(=O)Nc1cc2c(Nc3ccc(OCc4ccccn4)c(Cl)c3)ncnc2cc1OCCOC` [Example 213, (2S)-1-acryloyl-pyrrolidine-2-carboxylic acid {4-[3-chloro-4-(pyridin-2-ylmethoxy)-phenylamino]-7-(2-methoxyethoxy)-quinazolin-6-yl}-amide]: the IC50 in experiment [1] (Homo sapiens, SK-BR-3, 72 h) was 4 nM; in experiment [2] (Homo sapiens, A-431, 72 h), 34 nM.
The matching figures for `C=CC(=O)N1CCC[C@H]1C(=O)Nc1cc2c(Nc3ccc4c(cnn4Cc4cccc(F)c4)c3)ncnc2cc1OC` [Example 188, (2S)-1-acryloyl-pyrrolidine-2-carboxylic acid {4-[1-(3-fluoro-benzyl)-1H-indazol-5-ylamino]-7-methoxy-quinazolin-6-yl}-amide]: 6 nM and 24 nM.
On the same counts, the results for `C=CC(=O)N[C@@H](C)C(=O)Nc1cc2c(Nc3ccc(OCc4ccccn4)c(Cl)c3)ncnc2cc1OCCCOC` [Example 220, (1S)—N-(1-{4-[3-chloro-4-(pyridin-2-ylmethoxy)-phenylamino]-7-(3-methoxypropoxy)-quinazolin-6-ylcarbamoyl}-ethyl)-acrylamide] are 21 nM and 22 nM.

(Values after patent publication US8003658B2, “Quinazoline derivatives for inhibiting cancer cell growth and method for the preparation thereof” (Hanmi Holdings Co., Ltd., priority 2004, dated 2011).)
